Test results from PubChem BioAssay (NCI).
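Each compound was tested at five concentrations against cells in 96-well plates for 48 hours. At the TGI there is no net growth.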

Legend:
Assay in all cases: inhibition of tumour cell growth, NCI panel, 48 h
[1] = test system: 786-0 renal
[2] = test system: A498 renal
[3] = test system: A549 NSCLC
[4] = test system: ACHN renal
[5] = test system: CAKI-1 renal
[6] = test system: CCRF-CEM leukemia
[7] = test system: COLO 205 colon
[8] = test system: DLD-1 colon
[9] = test system: DMS 114 small cell lung
[10] = test system: DMS 273 small cell lung
[11] = test system: EKVX NSCLC
[12] = test system: HCC-2998 colon
[13] = test system: HCT-116 colon
[14] = test system: HCT-15 colon
[15] = test system: HL-60(TB) leukemia
[16] = test system: HOP-18 NSCLC
[17] = test system: HOP-62 NSCLC
[18] = test system: HOP-92 NSCLC
[19] = test system: HT29 colon
[20] = test system: IGROV1 ovarian
[21] = test system: K-562 leukemia
[22] = test system: KM12 colon
[23] = test system: KM20L2 colon
[24] = test system: LOX IMVI melanoma
[25] = test system: LXFL 529 NSCLC
[26] = test system: M14 melanoma
[27] = test system: MALME-3M melanoma
[28] = test system: NCI-H226 lung
[29] = test system: NCI-H23 lung
[30] = test system: NCI-H460 lung
[31] = test system: NCI-H522 lung
[32] = test system: OVCAR-3 ovarian
[33] = test system: OVCAR-4 ovarian
[34] = test system: OVCAR-5 ovarian
[35] = test system: OVCAR-8 ovarian
[36] = test system: RPMI-8226 leukemia
[37] = test system: RXF 393 renal
[38] = test system: RXF-631 renal
[39] = test system: SF-268 CNS
[40] = test system: SF-295 CNS
[41] = test system: SF-539 CNS
[42] = test system: SK-MEL-2 melanoma
[43] = test system: SK-MEL-28 melanoma
[44] = test system: SK-MEL-5 melanoma
[45] = test system: SK-OV-3 ovarian
[46] = test system: SN12C renal
[47] = test system: SNB-19 CNS
[48] = test system: SNB-75 CNS
[49] = test system: SNB-78 CNS
[50] = test system: SW-620 colon
[51] = test system: TK-10 renal
[52] = test system: U251 CNS
[53] = test system: UACC-257 melanoma
[54] = test system: UACC-62 melanoma
[55] = test system: UO-31 renal
[56] = test system: XF 498 CNS
[57] = test system: M19-MEL melanoma
[58] = test system: MOLT-4 leukemia
[59] = test system: SR leukemia

COc1ccccc1CC(C)N (stereo unspecified)
TGI [1]: > 100 µM | TGI [2]: > 100 µM | TGI [3]: > 100 µM | TGI [4]: > 100 µM | TGI [5]: > 100 µM | TGI [6]: > 100 µM | TGI [7]: > 100 µM | TGI [8]: > 100 µM | TGI [9]: > 100 µM | TGI [10]: > 100 µM | TGI [11]: > 100 µM | TGI [12]: > 100 µM | TGI [13]: > 100 µM | TGI [14]: > 100 µM | TGI [15]: > 100 µM | TGI [16]: > 100 µM | TGI [17]: > 100 µM | TGI [18]: > 100 µM | TGI [19]: > 100 µM | TGI [20]: > 100 µM | TGI [21]: > 100 µM | TGI [22]: > 100 µM | TGI [23]: > 100 µM | TGI [24]: > 100 µM | TGI [25]: > 100 µM | TGI [26]: > 100 µM | TGI [27]: > 100 µM | TGI [28]: > 100 µM | TGI [29]: > 100 µM | TGI [30]: > 100 µM | TGI [31]: > 100 µM | TGI [32]: > 100 µM | TGI [33]: > 100 µM | TGI [34]: > 100 µM | TGI [35]: > 100 µM | TGI [36]: > 100 µM | TGI [37]: > 100 µM | TGI [38]: > 100 µM | TGI [39]: > 100 µM | TGI [40]: > 100 µM | TGI [41]: > 100 µM | TGI [42]: > 100 µM | TGI [43]: > 100 µM | TGI [44]: > 100 µM | TGI [45]: > 100 µM | TGI [46]: > 100 µM | TGI [47]: > 100 µM | TGI [48]: > 100 µM | TGI [49]: > 100 µM | TGI [50]: > 100 µM | TGI [51]: > 100 µM | TGI [52]: > 100 µM | TGI [53]: > 100 µM | TGI [54]: > 100 µM | TGI [55]: > 100 µM | TGI [56]: > 100 µM

COC(=O)c1ncc2c(=O)[nH]c3ccccc3c2c1C(=O)OC
TGI [1]: > 100 µM | TGI [2]: > 100 µM | TGI [3]: > 100 µM | TGI [4]: > 100 µM | TGI [5]: > 100 µM | TGI [6]: > 100 µM | TGI [8]: > 100 µM | TGI [9]: > 100 µM | TGI [10]: > 100 µM | TGI [11]: > 100 µM | TGI [12]: > 100 µM | TGI [13]: > 100 µM | TGI [14]: > 100 µM | TGI [15]: > 100 µM | TGI [16]: > 100 µM | TGI [17]: > 100 µM | TGI [18]: > 100 µM | TGI [19]: > 100 µM | TGI [20]: > 100 µM | TGI [21]: > 100 µM | TGI [22]: > 100 µM | TGI [23]: > 100 µM | TGI [24]: > 100 µM | TGI [25]: > 100 µM | TGI [26]: > 100 µM | TGI [57]: > 100 µM | TGI [27]: > 100 µM | TGI [58]: > 100 µM | TGI [28]: > 100 µM | TGI [29]: > 100 µM | TGI [30]: 47.3 µM | TGI [32]: > 100 µM | TGI [33]: > 100 µM | TGI [34]: > 100 µM | TGI [35]: > 100 µM | TGI [36]: > 100 µM | TGI [37]: > 100 µM | TGI [38]: > 100 µM | TGI [39]: > 100 µM | TGI [40]: > 100 µM | TGI [41]: > 100 µM | TGI [42]: > 100 µM | TGI [43]: > 100 µM | TGI [44]: > 100 µM | TGI [46]: > 100 µM | TGI [47]: > 100 µM | TGI [48]: > 100 µM | TGI [49]: > 100 µM | TGI [59]: > 100 µM | TGI [50]: > 100 µM | TGI [51]: > 100 µM | TGI [53]: > 100 µM | TGI [54]: > 100 µM | TGI [55]: > 100 µM | TGI [56]: > 100 µM

O=C(OCCCl)C1OC(n2cc(F)c(=O)[nH]c2=O)CC1O (stereo unspecified)
TGI [1]: > 100 µM | TGI [2]: > 100 µM | TGI [3]: > 100 µM | TGI [4]: > 100 µM | TGI [6]: > 100 µM | TGI [7]: > 100 µM | TGI [8]: > 100 µM | TGI [9]: > 100 µM | TGI [11]: > 100 µM | TGI [12]: > 100 µM | TGI [13]: > 100 µM | TGI [14]: > 100 µM | TGI [15]: > 100 µM | TGI [16]: > 100 µM | TGI [17]: > 100 µM | TGI [18]: > 100 µM | TGI [19]: > 100 µM | TGI [20]: > 100 µM | TGI [21]: > 100 µM | TGI [22]: > 100 µM | TGI [23]: > 100 µM | TGI [24]: > 100 µM | TGI [25]: > 100 µM | TGI [26]: > 100 µM | TGI [57]: > 100 µM | TGI [27]: > 100 µM | TGI [58]: > 100 µM | TGI [28]: > 100 µM | TGI [29]: > 100 µM | TGI [30]: > 100 µM | TGI [31]: > 100 µM | TGI [32]: > 100 µM | TGI [33]: > 100 µM | TGI [34]: > 100 µM | TGI [35]: > 100 µM | TGI [36]: > 100 µM | TGI [37]: > 100 µM | TGI [39]: > 100 µM | TGI [40]: > 100 µM | TGI [41]: > 100 µM | TGI [42]: > 100 µM | TGI [43]: > 100 µM | TGI [44]: > 100 µM | TGI [45]: > 100 µM | TGI [46]: > 100 µM | TGI [47]: > 100 µM | TGI [48]: > 100 µM | TGI [49]: > 100 µM | TGI [50]: > 100 µM | TGI [51]: > 100 µM | TGI [52]: > 100 µM | TGI [53]: > 100 µM | TGI [54]: > 100 µM | TGI [55]: > 100 µM | TGI [56]: > 100 µM
